Test results as given in US5023254A, “Aminoalkylindoles, their production, and pharmaceutical preparations based thereon” (Schering Aktiengesellschaft, priority 1988, dated 1991).
Like-named read-outs stand apart in the source and are kept apart here.

How the values were obtained:
mouse uterus [1] = experiment: Antiuterotrophic test on infantile mouse (anti-estrogen activity); type: in vivo; parameters: Antiuterotrophic Test Rel. uterus wgt / Antiuterotrophic Test Action (rel. uterus wgt): unit not given here; settings: for inhibition in vivo at 0.005 mg: dose 5 ug (per animal); for inhibition in vivo at 0.025 mg: dose 25 ug (per animal)
Description: (§1) This test is fully described in Cancer Treatment Reviews 1984, 11, 147, and J.Med.Chem., 1984, 27, 1439.

[2] = test system: human MCF-7 breast cancer cells; experiment: growth of hormone-dependent human MCF-7 breast cancer cells, cell count; type: cell-based; settings: for activity at 10 µM / activity at 1 µM / activity at 0.1 µM / activity at 5 µM / activity at 0.5 µM: Homo sapiens, read-out: Cell Count (% T/C); for activity at 10 µM: MCF-7, 1 × 10^-5 M
Description: (§2) The test protocol for the research is fully described in Eur.J. Cancer Clin. Oncol.

estrogen receptor = molecular target: T1, estrogen receptor (Bos taurus, UniProt P49884); experiment: relative binding affinity (RBA) for the estrogen receptor from calf uterus, displacement of 3H-17β estradiol; settings: calf uterus; relative to 17 beta estradiol = 100
T1 construct: estrogen receptor from calf uterus; from tissue; host or cells: calf uterus
T1 sequence (P49884 1-596): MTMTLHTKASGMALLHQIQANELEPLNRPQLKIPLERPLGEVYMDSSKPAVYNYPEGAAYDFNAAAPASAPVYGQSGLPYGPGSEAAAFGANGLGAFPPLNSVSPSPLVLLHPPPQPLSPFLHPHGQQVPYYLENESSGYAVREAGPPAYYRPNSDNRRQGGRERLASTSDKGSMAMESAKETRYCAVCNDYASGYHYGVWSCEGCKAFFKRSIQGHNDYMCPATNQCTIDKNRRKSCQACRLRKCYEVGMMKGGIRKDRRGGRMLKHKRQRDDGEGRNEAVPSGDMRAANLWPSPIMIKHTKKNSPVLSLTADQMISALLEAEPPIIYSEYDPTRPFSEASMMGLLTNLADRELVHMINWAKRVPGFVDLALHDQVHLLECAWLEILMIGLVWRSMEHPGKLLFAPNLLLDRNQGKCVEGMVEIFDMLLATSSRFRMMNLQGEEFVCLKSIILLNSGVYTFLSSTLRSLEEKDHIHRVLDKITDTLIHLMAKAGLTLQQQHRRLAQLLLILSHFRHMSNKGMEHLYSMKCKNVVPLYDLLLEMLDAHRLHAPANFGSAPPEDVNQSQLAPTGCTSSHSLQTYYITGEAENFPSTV
Description: *Relative binding affinities for the estrogen receptor from calf uterus,

mouse uterus [3] = experiment: Uterotrophic test on infantile mouse (estrogen activity); type: in vivo; parameters: unit not given here
Description: as §1

[4] = test system: human MCF-7 breast cancer cells; experiment: [3H] thymidine incorporation in hormone-dependent human MCF-7 breast cancer cells; type: cell-based; settings: for activity at 0.1 µM / activity at 0.5 µM / activity at 1 µM / activity at 5 µM: Homo sapiens, read-out: [3H] Thymidine incorporation (% T/C)
Description: as §2

[5] = Mus musculus, read-out: Antiuterotrophic Test Inhib. (%)
[6] = infantile mouse, read-out: Antiuterotrophic Test Inhib. (%)
[7] = infantile mouse, dose 5 ug/animal
[8] = infantile mouse, dose 25 ug/animal
[9] = infantile mouse, dose 625 ug/animal
[10] = infantile mouse, dose 625 ug/animal, read-out: Antiuterotrophic Test Inhib. (%)
[11] = 10^-7 M, six days after incubation

| Structure (SMILES) | inhibition in vivo at 0.125 mg (mouse uterus [1]; [5]) | inhibition in vivo at 0.005 mg (mouse uterus [1]; [6]) | Antiuterotrophic Test Action (rel. uterus wgt) (mouse uterus [1]; [7]) | inhibition in vivo at 0.025 mg (mouse uterus [1]; [6]) | Antiuterotrophic Test Action (rel. uterus wgt) (mouse uterus [1]; [8]) | Antiuterotrophic Test Action (rel. uterus wgt) (mouse uterus [1]; [9]) | inhibition in vivo at 0.625 mg (mouse uterus [1]; [10]) | activity at 10 µM ([2]; MCF7) | activity at 1 µM ([2]; MCF7, MCF-7, 1 × 10^-6 M) | activity at 0.1 µM ([2]; MCF7, MCF-7, 1 × 10^-7 M) | RBA (relative binding affinity for the estrogen receptor) (estrogen receptor) | Uterotrophic Test Action (rel. uterus wgt) (mouse uterus [3]; dose 5 ug/animal) | Uterotrophic Test Action (rel. uterus wgt) (mouse uterus [3]; dose 25 ug/animal) | activity at 5 µM ([2]; MCF7, MCF-7, 5 × 10^-6 M) | activity at 0.5 µM ([2]; MCF7, MCF-7, 5 × 10^-7 M) | Uterotrophic Test Action (rel. uterus wgt) (mouse uterus [3]; dose 625 ug/animal) | Antiuterotrophic Test Rel. uterus wgt (mouse uterus [1]; infantile mouse, dose 5 ug) | Antiuterotrophic Test Rel. uterus wgt (mouse uterus [1]; infantile mouse, dose 25 ug) | Antiuterotrophic Test Rel. uterus wgt (mouse uterus [1]; infantile mouse, dose 125 ug) | Uterotrophic Test Rel. uterus wgt (mouse uterus [3]; dose 5 ug) | other results |
| --- | --- | --- | --- | --- | --- | --- | --- | --- | --- | --- | --- | --- | --- | --- | --- | --- | --- | --- | --- | --- | --- |
| Cc1c(-c2ccc(O)cc2)n(CCCCCCNCc2ccccc2)c2ccc(O)cc12 [Compound 12, 1-(6-Benzylaminohexyl)-5-hydroxy-2-(4-hydroxyphenyl)-3-methyl-indole] | 51% | 25% | 53.2 ± 9.0 | 43% | 44.6 ± 7.1 | 41.8 ± 7.4 | 49% | 41% | 46% | 47% | 15 | 17.8 ± 4.6 | 23.6 ± 2.5 | – | – | – | – | – | – | – | – |
| Cc1c(-c2ccc(O)cc2)n(CCCCCC(=O)NCc2ccccc2)c2ccc(O)cc12 [Compound 20, 1-(6-Benzylcarbamoylpentyl)-5-hydroxy-2-(4-hydroxyphenyl)-3-methylindole] | – | – | 50.7 ± 5.0 | 12% | 46.9 ± 7.7 | 59.5 ± 12.4 | -23% | 26.8 ± 4.2% | 46.8 ± 4.2% | 58.3 ± 4.9% | 12 | 16.5 ± 3.6 | 20.9 ± 6.5 | 36.6 ± 2.5% | 47.9 ± 3% | 19.9 ± 4.1 | – | – | – | – | – |
| Cc1c(-c2ccc(O)cc2)n(CCCCCCN2CCCC2)c2ccc(O)cc12 [Compound 6, 5-Hydroxy-2-(4-hydroxyphenyl)-3-methyl-1-[6-pyrrolidino-hexyl]-indole] | – | – | – | – | – | – | – | – | – | – | – | – | – | – | – | – | 20.1 ± 7.3 | 12.6 ± 1.9 | 8.9 ± 1.6 | 9.0 ± 1.8 | activity at 0.1 µM ([4]; MCF7, […]): 32%; activity at 0.5 µM ([4]; MCF7, […]): 32%; activity at 1 µM ([4]; MCF7, […]): 22%; activity at 5 µM ([4]; MCF7, […]): 3%; inhibition in vivo at 0.001 mg (mouse uterus [1]; Mus musculus, read-out: Antiuterotrophic Test Inhib. (%), infantile mouse, dose 1 ug): 20%; Antiuterotrophic Test Rel. uterus wgt (mouse uterus [1]; infantile mouse, dose 1 ug): 48.3 ± 7.2; activity at 0.1 µM ([2]; MCF7, […]): 65%; activity at 0.5 µM ([2]; MCF7, […]): 49%; activity at 1 µM ([2]; MCF7, […]): 24%; activity at 5 µM ([2]; MCF7, […]): 12%; Uterotrophic Test Rel. uterus wgt (mouse uterus [3]; dose 50 ug): 8.2 ± 1.8; Uterotrophic Test Rel. uterus wgt (mouse uterus [3]; dose 250 ug): 12.7 ± 2.7 |
| CCN(CC)C(=O)CCCCCn1c(-c2ccc(O)cc2)c(C)c2cc(O)ccc21 [Compound 19, 1-(6-Diethylcarbamoylpentyl)-5-hydroxy-2-(4-hydroxyphenyl)-3-methylindole] | 34% | 13% | 50.9 ± 8.2 | 13% | 50.9 ± 4.8 | 35.3 ± 6.1 | 66% | 44.9 ± 3.7% | 61.4 ± 4.4% | 59.7 ± 6.1% | 15 | 18.4 ± 3.2 | 17.9 ± 2.0 | 56.2 ± 4.5% | 60.1 ± 3.8% | 32.7 ± 6.5 | – | – | – | – | – |
| Cc1c(-c2ccc(O)cc2)n(CCCCCCN2CCOCC2)c2ccc(O)cc12 [Compound 10, 5-Hydroxy-2-(4-hydroxyphenyl)-3-methyl-1-[6-morpholino-hexyl]-indole] | 102% | 8% | – | 18% | – | – | – | 36% | 52% | 75% | 10 | – | – | – | – | – | 51.2 ± 7.5 | 47.7 ± 8.4 | 18.0 ± 4.8 | 19.5 ± 6.9 | Uterotrophic Test Rel. uterus wgt (mouse uterus [3]; dose 1 ug): 21.2 ± 3.9; Uterotrophic Test Rel. uterus wgt (mouse uterus [3]; dose 25 ug): 21.8 ± 11.3; Uterotrophic Test Rel. uterus wgt (mouse uterus [3]; dose 125 ug): 17.4 ± 1.7 |
| Cc1c(-c2ccc(O)cc2)n(CCCCCC(=O)N2CCCCC2)c2ccc(O)cc12 [Compound 17, 5-Hydroxy-2-(4-hydroxyphenyl)-3-methyl-1-(6-piperidinocarbonylpentyl)-indole] | 59% | 6% | 48.7 ± 9.1 | 22% | 42.9 ± 4.7 | – | – | 86.5 ± 8.3% | 96 ± 7.7% | 89 ± 10.8% | 19 | 17.7 ± 3.2 | 16.3 ± 3.0 | 99.6 ± 7.6% | 95.5 ± 10.2% | – | – | – | – | – | Uterotrophic Test Action (rel. uterus wgt) (mouse uterus [3]; dose 1 ug/animal): 23.8 ± 2.8 |
| Cc1c(-c2ccc(O)cc2)n(CCCCN2CCCC2)c2ccc(O)cc12 [Compound 1, 5-Hydroxy-2-(4-hydroxyphenyl)-3-methyl-1-[4-pyrrolidino-butyl]-indole] | 53% | – | – | 78% | – | – | – | – | 94% | 106% | 3.6 | – | – | 62% | 84% | – | 47.6 ± 10.5 | 16.2 ± 4.6 | 25.5 ± 7.9 | 8.0 ± 3.1 | activity at 1 µM ([4]; MCF7, MCF-7, 1 × 10^-6 M): 85%; activity at 0.1 µM ([4]; MCF7, MCF-7, 1 × 10^-7 M): 67%; activity at 5 µM ([4]; MCF7, MCF-7, 5 × 10^-6 M): 74%; activity at 0.5 µM ([4]; MCF7, MCF-7, 5 × 10^-7 M): 76%; Antiuterotrophic Test Rel. uterus wgt (mouse uterus [1]; infantile mouse, dose 1 ug): 43.7 ± 8.2; inhibition in vivo at 0.001 mg (mouse uterus [1]; infantile mouse, dose 1 ug, read-out: Antiuterotrophic Test Inhib. (%)): 5%; Uterotrophic Test Rel. uterus wgt (mouse uterus [3]; dose 1 ug): 7.6 ± 2.8; Uterotrophic Test Rel. uterus wgt (mouse uterus [3]; dose 25 ug): 6.4 ± 1.1; Uterotrophic Test Rel. uterus wgt (mouse uterus [3]; dose 125 ug): 6.4 ± 1.3 |
| Cc1c(-c2ccc(O)cc2)n(CCCCCC(=O)N2CCOCC2)c2ccc(O)cc12 [Compound 18, 5-Hydroxy-2-(4-hydroxyphenyl)-3-methyl-1-(6-morpholinocarbonylpentyl)-indole] | 41% | – | 53.5 ± 8.7 | – | 52.8 ± 7.4 | – | – | 33.3 ± 2.8% | 56.4 ± 5.2% | 57.5 ± 6.8% | 26 | 22.0 ± 5.6 | 21.2 ± 4.6 | 42.4 ± 3.7% | 58.1 ± 6.7% | – | – | – | – | – | Uterotrophic Test Action (rel. uterus wgt) (mouse uterus [3]; dose 1 ug/animal): 20.2 ± 3.4 |
| CC/C(=C(\c1ccccc1)c1ccc(OCCN(C)C)cc1)c1ccccc1 [Tamoxifen, reference compound] | – | – | – | – | – | – | – | – | 27% | 77% | – | – | – | – | – | – | – | – | – | – | thymidine incorporation (in words) [4, 11]: no significant effect; activity at 1 µM ([4]; MCF7, MCF-7, 1 × 10^-6 M): 27%; activity at 0.1 µM ([4]; MCF7, MCF-7, 1 × 10^-7 M): 71%; inhibition of MCF-7 cell growth / cell count (in words) [2, 11]: no significant effect |
| Cc1c(-c2ccc(O)cc2)n(CCCCCC(=O)N2CCCC2)c2ccc(O)cc12 [Compound 16, 5-Hydroxy-2-(4-hydroxyphenyl)-3-methyl-1-(6-pyrrolidinocarbonylpentyl)-indole] | 53% | 10% | 47.5 ± 10.9 | 29% | 42.0 ± 7.0 | 40.7 ± 3.9 | 44% | 42.1 ± 4% | 47.1 ± 3.7% | 57.2 ± 4.4% | 7 | 18.2 ± 2.3 | 16.5 ± 2.4 | 44 ± 3.6% | 48.2 ± 5.4% | 35.3 ± 10.7 | – | – | – | – | – |
